Results reported in the NIST ThermoML archive (doi:10.1021/je8007759).

Assay: xn = mol fraction of the nth substance listed

CC1CCC(=O)O1 (stereo not given) [γ-valerolactone] + O=C=O
Fluid (supercritical or subcritical phases), Pycnometric method
Conditions | mass density [kg/m3]
327.9 K, 12360 kPa, x1 = 0.1 | 876
327.9 K, 12500 kPa, x1 = 0.05 | 784
327.9 K, 12510 kPa, x1 = 0.025 | 726
327.9 K, 12630 kPa, x1 = 0.01 | 657
327.9 K, 12640 kPa, x1 = 0.15 | 937
327.9 K, 12700 kPa, x1 = 0.05 | 790
327.9 K, 12720 kPa, x1 = 0.025 | 735
327.9 K, 12740 kPa, x1 = 0.1 | 882
327.9 K, 12920 kPa, x1 = 0.05 | 795
327.9 K, 13010 kPa, x1 = 0.025 | 745
327.9 K, 13120 kPa, x1 = 0.15 | 941
327.9 K, 13130 kPa, x1 = 0.1 | 888
327.9 K, 13160 kPa, x1 = 0.05 | 800
327.9 K, 13320 kPa, x1 = 0.025 | 755
327.9 K, 13370 kPa, x1 = 0.1 | 891
327.9 K, 13410 kPa, x1 = 0.05 | 805
327.9 K, 13520 kPa, x1 = 0.15 | 943
327.9 K, 13640 kPa, x1 = 0.1 | 894
327.9 K, 13660 kPa, x1 = 0.025 | 765
327.9 K, 13700 kPa, x1 = 0.05 | 811
327.9 K, 13980 kPa, x1 = 0.15 | 947
327.9 K, 14010 kPa, x1 = 0.05 | 817
327.9 K, 14060 kPa, x1 = 0.025 | 776
327.9 K, 14180 kPa, x1 = 0.1 | 900
327.9 K, 14330 kPa, x1 = 0.05 | 823
327.9 K, 14440 kPa, x1 = 0.15 | 949
327.9 K, 14700 kPa, x1 = 0.05 | 829
327.9 K, 14780 kPa, x1 = 0.1 | 907
327.9 K, 14900 kPa, x1 = 0.15 | 952
327.9 K, 15080 kPa, x1 = 0.05 | 835
327.9 K, 15410 kPa, x1 = 0.1 | 913
327.9 K, 15460 kPa, x1 = 0.15 | 956
327.9 K, 15940 kPa, x1 = 0.15 | 959
327.9 K, 16050 kPa, x1 = 0.1 | 919
327.9 K, 16480 kPa, x1 = 0.15 | 962
327.9 K, 17080 kPa, x1 = 0.15 | 965
332.8 K, 12270 kPa, x1 = 0.025 | 651
332.8 K, 12280 kPa, x1 = 0.025 | 652
332.8 K, 12340 kPa, x1 = 0.025 | 655
332.8 K, 12390 kPa, x1 = 0.025 | 659
332.8 K, 12460 kPa, x1 = 0.025 | 663
332.8 K, 12530 kPa, x1 = 0.025 | 667
332.8 K, 12600 kPa, x1 = 0.025 | 671
332.8 K, 12680 kPa, x1 = 0.025 | 675
332.8 K, 12840 kPa, x1 = 0.025 | 683
332.8 K, 12980 kPa, x1 = 0.025 | 690
332.8 K, 13130 kPa, x1 = 0.025 | 696
332.8 K, 13420 kPa, x1 = 0.025 | 710
332.8 K, 13670 kPa, x1 = 0.025 | 718
332.8 K, 13940 kPa, x1 = 0.025 | 728
332.8 K, 14270 kPa, x1 = 0.025 | 738
332.8 K, 14540 kPa, x1 = 0.025 | 744
332.8 K, 14820 kPa, x1 = 0.025 | 752
332.8 K, 15190 kPa, x1 = 0.025 | 761
332.9 K, 11320 kPa, x1 = 0.01 | 487
332.9 K, 11330 kPa, x1 = 0.01 | 488
332.9 K, 11340 kPa, x1 = 0.01 | 490
332.9 K, 11350 kPa, x1 = 0.01 | 491
332.9 K, 11370 kPa, x1 = 0.01 | 493
332.9 K, 11380 kPa, x1 = 0.01 | 494
332.9 K, 11400 kPa, x1 = 0.01 | 496
332.9 K, 11410 kPa, x1 = 0.01 | 497
332.9 K, 11420 kPa, x1 = 0.01 | 498
332.9 K, 11440 kPa, x1 = 0.01 | 500
332.9 K, 11450 kPa, x1 = 0.01 | 501
332.9 K, 11470 kPa, x1 = 0.01 | 503
332.9 K, 11490 kPa, x1 = 0.01 | 506
332.9 K, 11520 kPa, x1 = 0.01 | 509
332.9 K, 11560 kPa, x1 = 0.01 | 511
332.9 K, 11600 kPa, x1 = 0.01 | 515
332.9 K, 11630 kPa, x1 = 0.01 | 518
332.9 K, 11660 kPa, x1 = 0.01 | 521
332.9 K, 11700 kPa, x1 = 0.01 | 524
332.9 K, 11730 kPa, x1 = 0.01 | 527
332.9 K, 11770 kPa, x1 = 0.01 | 531
332.9 K, 11810 kPa, x1 = 0.01 | 534
332.9 K, 11850 kPa, x1 = 0.01 | 537
332.9 K, 11890 kPa, x1 = 0.01 | 540
332.9 K, 11940 kPa, x1 = 0.01 | 543
332.9 K, 11990 kPa, x1 = 0.01 | 547
332.9 K, 12040 kPa, x1 = 0.01 | 551
332.9 K, 12090 kPa, x1 = 0.01 | 554
332.9 K, 12140 kPa, x1 = 0.01 | 558
332.9 K, 12190 kPa, x1 = 0.01 | 561
332.9 K, 12240 kPa, x1 = 0.01 | 565
332.9 K, 12290 kPa, x1 = 0.01 | 569
332.9 K, 12340 kPa, x1 = 0.01 | 573
332.9 K, 12390 kPa, x1 = 0.01 | 576
332.9 K, 12460 kPa, x1 = 0.01 | 580
332.9 K, 12530 kPa, x1 = 0.01 | 584
332.9 K, 12590 kPa, x1 = 0.01 | 588
332.9 K, 12600 kPa, x1 = 0.15 | 914
332.9 K, 12670 kPa, x1 = 0.01 | 592
332.9 K, 12750 kPa, x1 = 0.15 | 916
332.9 K, 12800 kPa, x1 = 0.01 | 600
332.9 K, 12820 kPa, x1 = 0.05 | 743
332.9 K, 12860 kPa, x1 = 0.05 | 743
332.9 K, 12920 kPa, x1 = 0.05 | 746
332.9 K, 12950 kPa, x1 = 0.01 | 608
332.9 K, 13060 kPa, x1 = 0.05 | 751
332.9 K, 13070 kPa, x1 = 0.1 | 854
332.9 K, 13090 kPa, x1 = 0.15 | 919
332.9 K, 13110 kPa, x1 = 0.01 | 617
332.9 K, 13170 kPa, x1 = 0.1 | 856
332.9 K, 13220 kPa, x1 = 0.05 | 755
332.9 K, 13270 kPa, x1 = 0.1 | 858
332.9 K, 13330 kPa, x1 = 0.01 | 628
332.9 K, 13380 kPa, x1 = 0.05 | 760
332.9 K, 13420 kPa, x1 = 0.1 | 861
332.9 K, 13440 kPa, x1 = 0.15 | 922
332.9 K, 13550 kPa, x1 = 0.05 | 766
332.9 K, 13550 kPa, x1 = 0.1 | 863
332.9 K, 13730 kPa, x1 = 0.1 | 865
332.9 K, 13730 kPa, x1 = 0.15 | 925
332.9 K, 13760 kPa, x1 = 0.05 | 770
332.9 K, 13890 kPa, x1 = 0.1 | 867
332.9 K, 13960 kPa, x1 = 0.05 | 776
332.9 K, 14060 kPa, x1 = 0.1 | 870
332.9 K, 14160 kPa, x1 = 0.05 | 781
332.9 K, 14250 kPa, x1 = 0.15 | 928
332.9 K, 14260 kPa, x1 = 0.1 | 873
332.9 K, 14400 kPa, x1 = 0.05 | 786
332.9 K, 14470 kPa, x1 = 0.1 | 876
332.9 K, 14620 kPa, x1 = 0.15 | 931
332.9 K, 14680 kPa, x1 = 0.05 | 792
332.9 K, 14680 kPa, x1 = 0.1 | 878
332.9 K, 14960 kPa, x1 = 0.05 | 798
332.9 K, 15000 kPa, x1 = 0.15 | 933
332.9 K, 15140 kPa, x1 = 0.1 | 884
332.9 K, 15260 kPa, x1 = 0.05 | 803
332.9 K, 15420 kPa, x1 = 0.1 | 888
332.9 K, 15420 kPa, x1 = 0.15 | 937
332.9 K, 15550 kPa, x1 = 0.05 | 809
332.9 K, 15660 kPa, x1 = 0.1 | 891
332.9 K, 15840 kPa, x1 = 0.15 | 940
332.9 K, 15950 kPa, x1 = 0.1 | 894
332.9 K, 16260 kPa, x1 = 0.1 | 897
332.9 K, 16380 kPa, x1 = 0.15 | 943
332.9 K, 16560 kPa, x1 = 0.1 | 900
332.9 K, 16870 kPa, x1 = 0.1 | 904
332.9 K, 17190 kPa, x1 = 0.1 | 907
337.9 K, 14310 kPa, x1 = 0.1 | 841
337.9 K, 14470 kPa, x1 = 0.1 | 844
337.9 K, 14580 kPa, x1 = 0.1 | 846
337.9 K, 14740 kPa, x1 = 0.1 | 848
337.9 K, 14900 kPa, x1 = 0.1 | 851
337.9 K, 15020 kPa, x1 = 0.1 | 852
337.9 K, 15200 kPa, x1 = 0.1 | 855
337.9 K, 15360 kPa, x1 = 0.1 | 857
337.9 K, 15580 kPa, x1 = 0.1 | 859
337.9 K, 15740 kPa, x1 = 0.1 | 862
337.9 K, 15940 kPa, x1 = 0.1 | 864
337.9 K, 16190 kPa, x1 = 0.1 | 868
337.9 K, 16420 kPa, x1 = 0.1 | 871
337.9 K, 16660 kPa, x1 = 0.1 | 874
337.9 K, 16920 kPa, x1 = 0.1 | 877
337.9 K, 17400 kPa, x1 = 0.1 | 883

mass density [kg/m3], high pressure variable cell
Conditions | 327.9 K | 332.8 K | 332.9 K
Gas, x1 = 0.01 | 496 | – | 486
Gas, x1 = 0.025 | 660 | 649 | –
Gas, x1 = 0.05 | 753 | – | 742
Liquid, x1 = 0.1 | 863 | – | 851
Liquid, x1 = 0.15 | 925 | – | 913

Liquid, high pressure variable cell
Conditions | Critical density [kg/m3]
x1 = 0.025 | 679
x1 = 0.05 | 774
x1 = 0.1 | 837
